Test results: article PMC7615677 (Science translational medicine, 2023)

What was measured:
[1] = target: T1, hERG potassium channel (Homo sapiens, UniProt Q12809); test: hERG channel test (Qpatch / Qube); type: cell-based; conditions: CHO cells stably expressing hERG potassium channels, Qpatch hERG (Fig. S15)
T1 construct: host or cells: Chinese hamster ovary cells
Method: Two concentrations (1 and 30 μM, two replicates each) were tested at room temperature.

[2] = target: T2, H2 (Homo sapiens, UniProt P25021); test: In vitro pharmacology panel (Eurofins); type: binding; conditions: read-out: activity (% of DMSO control)
T2 construct: purchased Eurofins (Cerep/DiscoverX SafetyScreen44 in vitro pharmacology panel)
Description: (§1) Listed values represent the percent change relative to the DMSO control activity. When an IC50 had to be determined, eight different concentrations were included. All values are the mean of assay readout duplicates.

[3] = target: T3, D1 (Homo sapiens, UniProt P21728); test: In vitro pharmacology panel (Eurofins); type: binding; conditions: read-out: activity (% of DMSO control)
T3 construct: purchased Eurofins (Cerep/DiscoverX SafetyScreen44 in vitro pharmacology panel)
Description: as §1

[4] = target: T4, N neuronal α4β2 (Homo sapiens, UniProt P17787+P43681); test: In vitro pharmacology panel (Eurofins); type: binding; conditions: read-out: activity (% of DMSO control)
T4 construct: purchased Eurofins (Cerep/DiscoverX SafetyScreen44 in vitro pharmacology panel)
Description: as §1

[5] = target: T5, 5-HT2B (Homo sapiens, UniProt P41595); test: In vitro pharmacology panel (Eurofins); type: binding; conditions: read-out: activity (% of DMSO control)
T5 construct: purchased Eurofins (Cerep/DiscoverX SafetyScreen44 in vitro pharmacology panel)
Description: as §1

[6] = target: T6, M2 (Homo sapiens, UniProt P08172); test: In vitro pharmacology panel (Eurofins); type: binding; conditions: read-out: activity (% of DMSO control)
T6 construct: purchased Eurofins (Cerep/DiscoverX SafetyScreen44 in vitro pharmacology panel)
T6 sequence (P08172 whole entry): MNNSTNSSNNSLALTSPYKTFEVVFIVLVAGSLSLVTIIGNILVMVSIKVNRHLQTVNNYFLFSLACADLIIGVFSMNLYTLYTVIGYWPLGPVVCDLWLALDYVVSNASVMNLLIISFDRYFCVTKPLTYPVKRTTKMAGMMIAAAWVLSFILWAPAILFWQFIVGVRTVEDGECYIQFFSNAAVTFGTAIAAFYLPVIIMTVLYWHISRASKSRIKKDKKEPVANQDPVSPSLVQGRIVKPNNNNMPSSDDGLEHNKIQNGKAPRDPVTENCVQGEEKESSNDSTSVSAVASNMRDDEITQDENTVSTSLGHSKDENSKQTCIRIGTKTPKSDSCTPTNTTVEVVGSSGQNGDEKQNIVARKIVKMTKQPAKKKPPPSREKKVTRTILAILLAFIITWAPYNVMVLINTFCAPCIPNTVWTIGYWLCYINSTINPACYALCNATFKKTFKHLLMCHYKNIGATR
Description: as §1

[7] = target: T7, δ (DOP) (Homo sapiens, UniProt P41143); test: In vitro pharmacology panel (Eurofins); type: binding; conditions: read-out: activity (% of DMSO control)
T7 construct: purchased Eurofins (Cerep/DiscoverX SafetyScreen44 in vitro pharmacology panel)
T7 sequence (P41143 whole entry): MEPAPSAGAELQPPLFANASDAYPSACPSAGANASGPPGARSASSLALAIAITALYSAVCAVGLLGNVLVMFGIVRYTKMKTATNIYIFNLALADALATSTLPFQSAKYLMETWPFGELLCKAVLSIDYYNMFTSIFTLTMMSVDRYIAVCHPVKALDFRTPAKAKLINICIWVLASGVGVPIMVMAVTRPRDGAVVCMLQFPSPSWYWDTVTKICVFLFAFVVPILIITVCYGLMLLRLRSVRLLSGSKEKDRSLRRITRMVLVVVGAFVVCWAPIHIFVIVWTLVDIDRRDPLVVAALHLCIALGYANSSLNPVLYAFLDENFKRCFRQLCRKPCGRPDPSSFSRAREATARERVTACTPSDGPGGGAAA
Description: as §1

[8] = target: T8, GR (Homo sapiens, UniProt P04150); test: In vitro pharmacology panel (Eurofins); type: binding; conditions: read-out: activity (% of DMSO control)
T8 construct: purchased Eurofins (Cerep/DiscoverX SafetyScreen44 in vitro pharmacology panel)
Description: as §1

[9] = target: T9, dopamine transporter (Homo sapiens, UniProt Q01959); test: In vitro pharmacology panel (Eurofins); type: binding; conditions: read-out: activity (% of DMSO control)
T9 construct: purchased Eurofins (Cerep/DiscoverX SafetyScreen44 in vitro pharmacology panel)
Description: as §1

[10] = target: T10, 5-HT1B (Rattus norvegicus, UniProt P28564); test: In vitro pharmacology panel (Eurofins); type: binding; conditions: read-out: activity (% of DMSO control)
T10 construct: purchased Eurofins (Cerep/DiscoverX SafetyScreen44 in vitro pharmacology panel)
Description: as §1

[11] = target: T11, MAO-A (Rattus norvegicus, UniProt P21396); test: In vitro pharmacology panel (Eurofins); type: binding; conditions: read-out: activity (% of DMSO control)
T11 construct: purchased Eurofins (Cerep/DiscoverX SafetyScreen44 in vitro pharmacology panel)
Description: as §1

[12] = target: T12, 5-HT1A (Homo sapiens, UniProt P08908); test: In vitro pharmacology panel (Eurofins); type: binding; conditions: read-out: activity (% of DMSO control)
T12 construct: purchased Eurofins (Cerep/DiscoverX SafetyScreen44 in vitro pharmacology panel)
Description: as §1

[13] = target: T13, V1 a (Homo sapiens, UniProt P37288); test: In vitro pharmacology panel (Eurofins); type: binding; conditions: read-out: activity (% of DMSO control)
T13 construct: purchased Eurofins (Cerep/DiscoverX SafetyScreen44 in vitro pharmacology panel)
Description: as §1

[14] = target: T14, β1 (Homo sapiens, UniProt P08588); test: In vitro pharmacology panel (Eurofins); type: binding; conditions: read-out: activity (% of DMSO control)
T14 construct: purchased Eurofins (Cerep/DiscoverX SafetyScreen44 in vitro pharmacology panel)
T14 sequence (P08588 whole entry): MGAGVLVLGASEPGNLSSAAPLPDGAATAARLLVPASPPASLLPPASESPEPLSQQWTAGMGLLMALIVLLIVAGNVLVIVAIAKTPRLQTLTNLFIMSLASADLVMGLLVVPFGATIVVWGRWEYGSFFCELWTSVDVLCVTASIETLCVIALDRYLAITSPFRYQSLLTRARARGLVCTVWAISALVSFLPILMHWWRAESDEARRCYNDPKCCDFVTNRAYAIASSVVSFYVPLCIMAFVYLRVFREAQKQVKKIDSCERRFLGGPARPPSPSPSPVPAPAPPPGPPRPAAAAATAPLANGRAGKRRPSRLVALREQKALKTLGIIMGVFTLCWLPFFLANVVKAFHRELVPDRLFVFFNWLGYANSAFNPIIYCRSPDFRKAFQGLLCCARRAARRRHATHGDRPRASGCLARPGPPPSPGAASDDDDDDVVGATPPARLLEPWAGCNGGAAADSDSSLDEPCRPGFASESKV
Description: as §1

[15] = target: T15, CB1 (Homo sapiens, UniProt P21554); test: In vitro pharmacology panel (Eurofins); type: binding; conditions: read-out: activity (% of DMSO control)
T15 construct: purchased Eurofins (Cerep/DiscoverX SafetyScreen44 in vitro pharmacology panel)
Description: as §1

[16] = target: T16, α2A (Homo sapiens, UniProt P08913); test: In vitro pharmacology panel (Eurofins); type: binding; conditions: read-out: activity (% of DMSO control)
T16 construct: purchased Eurofins (Cerep/DiscoverX SafetyScreen44 in vitro pharmacology panel)
T16 sequence (P08913 whole entry): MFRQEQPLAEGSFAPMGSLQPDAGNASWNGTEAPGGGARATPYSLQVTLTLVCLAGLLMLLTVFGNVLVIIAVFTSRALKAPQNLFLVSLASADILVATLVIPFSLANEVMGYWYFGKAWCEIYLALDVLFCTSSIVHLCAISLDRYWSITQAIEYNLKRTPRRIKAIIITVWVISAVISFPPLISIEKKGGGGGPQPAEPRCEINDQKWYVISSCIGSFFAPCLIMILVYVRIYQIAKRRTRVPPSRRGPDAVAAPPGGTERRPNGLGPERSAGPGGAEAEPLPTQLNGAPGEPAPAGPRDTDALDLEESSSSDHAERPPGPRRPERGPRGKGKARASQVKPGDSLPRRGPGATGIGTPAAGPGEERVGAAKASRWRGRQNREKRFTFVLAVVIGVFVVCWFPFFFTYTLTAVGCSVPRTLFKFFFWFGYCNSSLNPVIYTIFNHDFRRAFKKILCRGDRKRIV
Description: as §1

[17] = target: T17, ETA (Homo sapiens, UniProt P25101); test: In vitro pharmacology panel (Eurofins); type: binding; conditions: read-out: activity (% of DMSO control)
T17 construct: purchased Eurofins (Cerep/DiscoverX SafetyScreen44 in vitro pharmacology panel)
Description: as §1

[18] = target: T18, D2S (Homo sapiens, UniProt P14416); test: In vitro pharmacology panel (Eurofins); type: binding; conditions: read-out: activity (% of DMSO control)
T18 construct: purchased Eurofins (Cerep/DiscoverX SafetyScreen44 in vitro pharmacology panel)
Description: as §1

[19] = target: T19, μ (MOP) (Homo sapiens, UniProt P35372); test: In vitro pharmacology panel (Eurofins); type: binding; conditions: read-out: activity (% of DMSO control)
T19 construct: purchased Eurofins (Cerep/DiscoverX SafetyScreen44 in vitro pharmacology panel)
Description: as §1

[20] = target: T20, M1 (Homo sapiens, UniProt P11229); test: In vitro pharmacology panel (Eurofins); type: binding; conditions: read-out: activity (% of DMSO control)
T20 construct: purchased Eurofins (Cerep/DiscoverX SafetyScreen44 in vitro pharmacology panel)
Description: as §1

[21] = target: T21, 5-HT transporter (Homo sapiens, UniProt P31645); test: In vitro pharmacology panel (Eurofins); type: binding; conditions: read-out: activity (% of DMSO control)
T21 construct: purchased Eurofins (Cerep/DiscoverX SafetyScreen44 in vitro pharmacology panel)
T21 sequence (P31645 whole entry): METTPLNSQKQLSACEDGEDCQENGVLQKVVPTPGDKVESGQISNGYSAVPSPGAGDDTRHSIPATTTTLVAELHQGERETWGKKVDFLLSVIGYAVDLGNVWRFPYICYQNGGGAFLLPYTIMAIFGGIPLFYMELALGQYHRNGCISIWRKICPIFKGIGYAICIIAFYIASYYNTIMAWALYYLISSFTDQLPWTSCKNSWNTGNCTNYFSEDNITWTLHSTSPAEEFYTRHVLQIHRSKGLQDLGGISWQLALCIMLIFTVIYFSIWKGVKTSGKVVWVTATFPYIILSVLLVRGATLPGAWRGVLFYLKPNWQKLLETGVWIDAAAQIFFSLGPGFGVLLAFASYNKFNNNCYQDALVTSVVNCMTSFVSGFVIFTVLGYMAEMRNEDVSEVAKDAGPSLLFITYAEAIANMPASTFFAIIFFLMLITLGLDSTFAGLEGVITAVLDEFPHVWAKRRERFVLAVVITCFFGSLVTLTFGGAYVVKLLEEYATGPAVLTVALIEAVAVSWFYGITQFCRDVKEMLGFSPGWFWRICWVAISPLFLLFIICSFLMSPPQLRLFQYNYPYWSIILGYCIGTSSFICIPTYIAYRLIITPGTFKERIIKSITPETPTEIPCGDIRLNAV
Description: as §1

[22] = target: T22, M3 (Homo sapiens, UniProt P20309); test: In vitro pharmacology panel (Eurofins); type: binding; conditions: read-out: activity (% of DMSO control)
T22 construct: purchased Eurofins (Cerep/DiscoverX SafetyScreen44 in vitro pharmacology panel)
Description: as §1

[23] = target: T23, α1A (Homo sapiens, UniProt P35348); test: In vitro pharmacology panel (Eurofins); type: binding; conditions: read-out: activity (% of DMSO control)
T23 construct: purchased Eurofins (Cerep/DiscoverX SafetyScreen44 in vitro pharmacology panel)
T23 sequence (P35348 whole entry): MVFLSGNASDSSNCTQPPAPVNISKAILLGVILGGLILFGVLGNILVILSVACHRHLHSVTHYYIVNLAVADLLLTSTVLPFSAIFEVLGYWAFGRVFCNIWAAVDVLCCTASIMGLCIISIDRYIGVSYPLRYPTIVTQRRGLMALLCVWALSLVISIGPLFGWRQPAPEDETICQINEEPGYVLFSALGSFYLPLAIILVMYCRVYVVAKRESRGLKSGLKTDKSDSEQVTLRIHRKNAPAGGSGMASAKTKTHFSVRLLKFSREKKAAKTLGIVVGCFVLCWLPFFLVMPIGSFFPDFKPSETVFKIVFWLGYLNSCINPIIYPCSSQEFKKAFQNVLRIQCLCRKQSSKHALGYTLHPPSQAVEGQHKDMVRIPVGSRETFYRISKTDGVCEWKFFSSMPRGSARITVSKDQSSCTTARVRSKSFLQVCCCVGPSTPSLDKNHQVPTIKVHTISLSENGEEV
Description: as §1

[24] = target: T24, A2A (Homo sapiens, UniProt P29274); test: In vitro pharmacology panel (Eurofins); type: binding; conditions: read-out: activity (% of DMSO control)
T24 construct: purchased Eurofins (Cerep/DiscoverX SafetyScreen44 in vitro pharmacology panel)
Description: as §1

[25] = target: T25, norepinephrine transporter (Homo sapiens, UniProt P23975); test: In vitro pharmacology panel (Eurofins); type: binding; conditions: read-out: activity (% of DMSO control)
T25 construct: purchased Eurofins (Cerep/DiscoverX SafetyScreen44 in vitro pharmacology panel)
T25 sequence (P23975 whole entry): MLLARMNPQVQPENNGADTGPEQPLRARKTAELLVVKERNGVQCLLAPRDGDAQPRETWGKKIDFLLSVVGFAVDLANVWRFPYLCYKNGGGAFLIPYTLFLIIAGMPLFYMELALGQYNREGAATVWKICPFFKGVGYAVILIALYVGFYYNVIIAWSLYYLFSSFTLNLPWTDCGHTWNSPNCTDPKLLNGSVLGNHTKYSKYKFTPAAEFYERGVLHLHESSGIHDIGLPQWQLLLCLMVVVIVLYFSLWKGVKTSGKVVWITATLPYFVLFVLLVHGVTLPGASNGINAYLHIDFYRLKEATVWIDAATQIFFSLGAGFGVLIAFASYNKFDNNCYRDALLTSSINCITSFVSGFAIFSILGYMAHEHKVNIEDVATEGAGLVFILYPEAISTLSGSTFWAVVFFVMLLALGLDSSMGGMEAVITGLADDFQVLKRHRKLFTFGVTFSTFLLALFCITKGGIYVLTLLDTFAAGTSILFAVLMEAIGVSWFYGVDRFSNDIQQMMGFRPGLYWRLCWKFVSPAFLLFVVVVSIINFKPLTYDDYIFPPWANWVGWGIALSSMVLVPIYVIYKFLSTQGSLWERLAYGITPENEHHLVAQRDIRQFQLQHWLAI
Description: as §1

[26] = target: T26, β2 (Homo sapiens, UniProt P07550); test: In vitro pharmacology panel (Eurofins); type: binding; conditions: read-out: activity (% of DMSO control)
T26 construct: purchased Eurofins (Cerep/DiscoverX SafetyScreen44 in vitro pharmacology panel)
Description: as §1

[27] = target: T27, H1 (Homo sapiens, UniProt P35367); test: In vitro pharmacology panel (Eurofins); type: binding; conditions: read-out: activity (% of DMSO control)
T27 construct: purchased Eurofins (Cerep/DiscoverX SafetyScreen44 in vitro pharmacology panel)
T27 sequence (P35367 whole entry): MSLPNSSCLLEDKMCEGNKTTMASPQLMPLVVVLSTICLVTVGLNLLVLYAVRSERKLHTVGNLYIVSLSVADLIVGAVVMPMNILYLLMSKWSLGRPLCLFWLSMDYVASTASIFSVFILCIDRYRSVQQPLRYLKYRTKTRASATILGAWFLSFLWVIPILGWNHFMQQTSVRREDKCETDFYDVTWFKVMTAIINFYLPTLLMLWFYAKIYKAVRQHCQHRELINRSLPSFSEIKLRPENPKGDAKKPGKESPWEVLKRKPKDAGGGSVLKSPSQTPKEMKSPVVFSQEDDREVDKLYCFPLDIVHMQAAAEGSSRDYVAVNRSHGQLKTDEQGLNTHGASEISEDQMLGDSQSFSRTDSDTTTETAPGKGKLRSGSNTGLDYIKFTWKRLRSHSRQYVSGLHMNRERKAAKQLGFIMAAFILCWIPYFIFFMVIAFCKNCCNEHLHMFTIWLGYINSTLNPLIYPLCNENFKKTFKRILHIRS
Description: as §1

[28] = target: T28, 5-HT2A (Homo sapiens, UniProt P28223); test: In vitro pharmacology panel (Eurofins); type: binding; conditions: read-out: activity (% of DMSO control)
T28 construct: purchased Eurofins (Cerep/DiscoverX SafetyScreen44 in vitro pharmacology panel)
Description: as §1

[29] = target: T29, CCK1 (CCKA) (Homo sapiens, UniProt P32238); test: In vitro pharmacology panel (Eurofins); type: binding; conditions: read-out: activity (% of DMSO control)
T29 construct: purchased Eurofins (Cerep/DiscoverX SafetyScreen44 in vitro pharmacology panel)
Description: as §1

[30] = target: T30, κ (KOP) (Rattus norvegicus, UniProt P34975); test: In vitro pharmacology panel (Eurofins); type: binding; conditions: read-out: activity (% of DMSO control)
T30 construct: purchased Eurofins (Cerep/DiscoverX SafetyScreen44 in vitro pharmacology panel)
Description: as §1

[31] = target: T31, 5-HT3 (Homo sapiens, UniProt P46098); test: In vitro pharmacology panel (Eurofins); type: binding; conditions: read-out: activity (% of DMSO control)
T31 construct: purchased Eurofins (Cerep/DiscoverX SafetyScreen44 in vitro pharmacology panel)
T31 sequence (P46098 24-478): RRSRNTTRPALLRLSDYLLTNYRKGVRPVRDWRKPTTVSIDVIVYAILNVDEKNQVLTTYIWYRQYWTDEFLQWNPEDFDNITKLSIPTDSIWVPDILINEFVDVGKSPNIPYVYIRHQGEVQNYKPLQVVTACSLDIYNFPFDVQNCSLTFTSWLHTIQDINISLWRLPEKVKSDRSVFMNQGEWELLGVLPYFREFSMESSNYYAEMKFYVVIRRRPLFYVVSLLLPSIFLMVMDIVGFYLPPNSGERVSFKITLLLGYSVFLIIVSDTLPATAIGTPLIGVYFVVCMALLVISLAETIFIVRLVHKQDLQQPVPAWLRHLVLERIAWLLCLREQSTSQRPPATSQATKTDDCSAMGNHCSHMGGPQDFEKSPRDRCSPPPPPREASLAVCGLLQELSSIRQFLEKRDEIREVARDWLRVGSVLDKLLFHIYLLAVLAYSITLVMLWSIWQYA
Description: as §1

[32] = target: T32, CB2 (Homo sapiens, UniProt P34972); test: In vitro pharmacology panel (Eurofins); type: binding; conditions: read-out: activity (% of DMSO control)
T32 construct: purchased Eurofins (Cerep/DiscoverX SafetyScreen44 in vitro pharmacology panel)
T32 sequence (P34972 whole entry): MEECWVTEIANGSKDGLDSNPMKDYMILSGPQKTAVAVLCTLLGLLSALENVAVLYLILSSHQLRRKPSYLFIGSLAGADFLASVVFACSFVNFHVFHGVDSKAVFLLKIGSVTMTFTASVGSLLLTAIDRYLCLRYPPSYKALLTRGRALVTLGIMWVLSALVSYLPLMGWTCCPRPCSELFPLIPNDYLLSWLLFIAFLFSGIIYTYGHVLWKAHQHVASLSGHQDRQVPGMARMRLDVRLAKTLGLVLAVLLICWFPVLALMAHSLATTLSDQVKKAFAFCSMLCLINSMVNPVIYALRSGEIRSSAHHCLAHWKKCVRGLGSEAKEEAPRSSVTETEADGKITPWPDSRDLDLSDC
Description: as §1

[33] = In vitro cytotoxicity assay; type: cell-based; conditions: monkey, Vero monkey kidney epithelial cells
[34] = In vitro metabolism, liver microsomes; type: in vitro ADME, dog
Method: Compounds were spiked into microsomal matrix prepared in 0.1 M pH 7.4 phosphate buffer containing magnesium chloride (final concentration of 3.3 mM), equilibrated for 5-10 min at 37°C. The reaction was initiated with the addition of freshly prepared solution of NADPH (final 1.3 mM). Control samples without co-factor were included for comparison. Aliquots of the reaction mixtures were taken periodically over 60 min and quenched with acetonitrile containing internal standards (metolazone and diazepam). Quenched samples were maintained on ice for approximately 20-30 min, centrifuged (for 5 min) and the supernatant was analyzed by LC-MS.
In vitro intrinsic clearance (CLint, μL/min/mg or μL/min/10^6 cells) values were calculated from the apparent first order degradation rate constant divided by the microsome concentration or the hepatocyte cell number (10^6 viable cells/mL). In vitro CLint values were then divided by the fraction unbound in the in vitro test system (to give CLint,u) and scaled to in vivo values (mL/min/kg) using published physiological scaling factors ([28]). Blood clearance in each species was then calculated using the well-stirred model of hepatic extraction (equation 2) where Q is the hepatic blood flow and fu,blood is calculated from fu,plasma/B:P: [2] PredictedCLblood=Q x fu,blood x CLint,u/Q+fu,blood x CLint,u
Blood clearance values were converted to plasma clearance by multiplying by the B:P.

Compound: Cc1[nH]c2nc(N)nc(C)c2c1-c1ccc(C#N)c2c1OCO2 [DNDI-6174]
- IC50 [1]: 31.6 µM
- remaining activity at 10 µM [2]: 120%
- remaining activity at 10 µM [3]: 63.1%
- remaining activity at 10 µM [4]: 100%
- remaining activity at 10 µM [5]: 81.4%
- remaining activity at 10 µM [6]: 92.9%
- remaining activity at 10 µM [7]: 102%
- remaining activity at 10 µM [8]: 93%
- remaining activity at 10 µM [9]: 60.6%
- remaining activity at 10 µM [10]: 91.4%
- remaining activity at 10 µM [11]: 94.3%
- remaining activity at 10 µM [12]: 107%
- remaining activity at 10 µM [13]: 101%
- remaining activity at 10 µM [14]: 113%
- remaining activity at 10 µM [15]: 104%
- remaining activity at 10 µM [16]: 60.3%
- remaining activity at 10 µM [17]: 103%
- remaining activity at 10 µM [18]: 77.6%
- remaining activity at 10 µM [19]: 94.3%
- remaining activity at 10 µM [20]: 91.5%
- remaining activity at 10 µM [21]: 69.9%
- remaining activity at 10 µM [22]: 98.5%
- remaining activity at 10 µM [23]: 25.1%
- remaining activity at 10 µM [24]: 83.8%
- remaining activity at 10 µM [25]: 81.9%
- remaining activity at 10 µM [26]: 102%
- remaining activity at 10 µM [27]: 91.8%
- remaining activity at 10 µM [28]: 93.9%
- remaining activity at 10 µM [29]: 126%
- remaining activity at 10 µM [30]: 90.6%
- remaining activity at 10 µM [31]: 105%
- remaining activity at 10 µM [32]: 96.1%
- CC50 [33]: > 50 µM
- Microsome predicted in vivo CLplasma ([34]; Dog): 0.91 mL/min/kg
- In vitro Microsome CLint ([34]; Dog, 2 independent experiments): 4.8 ± 0.47 µL/min/mg
- microsomal CLint at 0.5 µM ([34]; dog, liver microsomes, pH 7.4, Dog, 2 independent experiments, read-out: In vitro Microsome CLint): 8.3 ± 0.65 µL/min/mg
